Laboratory results taken from article PMC5137160, “Optical imaging of MMP-12 active form in inflammation and aneurysm” (Scientific Reports, 2016).

How the values were obtained:
hMMP-9 = biological target: T1, hMMP-9 (Homo sapiens, UniProt P14780); assay: MMP inhibition assay (Ki); type: biochemical
T1 construct: made in house
Procedure: (§1) Human MMP-8, -9, -12 and -13 were produced in the laboratory. Other MMPs were purchased from R&D Systems (Minneapolis, MN). MMP inhibition assays were carried out as previously described. Pro-MMPs were pre-activated by p-aminophenylmercuric acetate following the method described by R&D Systems. Titration experiments were carried out to determine active enzyme concentration for each MMP prior to the assay. For each probe, the percentage of inhibition was determined from five different concentrations in triplicates, chosen to reach a range of 20–80% inhibition. Ki values were determined using the method proposed by Horovitz and Leviski[45].

hMMP-14 = biological target: T2, hMMP-14 (Homo sapiens, UniProt P50281); assay: MMP inhibition assay (Ki); type: biochemical
T2 construct: purchased R&D Systems (Minneapolis, MN)
Procedure: as §1

hMMP-3 = biological target: T3, hMMP-3 (Homo sapiens, UniProt P08254); assay: MMP inhibition assay (Ki); type: biochemical
T3 construct: purchased R&D Systems (Minneapolis, MN)
T3 sequence (P08254 100-477): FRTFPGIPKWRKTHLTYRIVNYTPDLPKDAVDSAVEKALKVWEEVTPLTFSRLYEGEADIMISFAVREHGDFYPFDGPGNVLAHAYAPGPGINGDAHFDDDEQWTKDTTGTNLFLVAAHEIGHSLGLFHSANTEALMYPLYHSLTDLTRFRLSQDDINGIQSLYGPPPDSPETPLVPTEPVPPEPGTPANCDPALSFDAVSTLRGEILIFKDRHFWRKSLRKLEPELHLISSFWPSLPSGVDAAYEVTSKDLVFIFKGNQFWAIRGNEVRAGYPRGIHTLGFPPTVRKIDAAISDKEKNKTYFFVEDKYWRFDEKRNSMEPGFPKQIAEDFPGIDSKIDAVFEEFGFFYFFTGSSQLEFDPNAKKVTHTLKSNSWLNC
Procedure: as §1

hMMP-7 = biological target: T4, hMMP-7 (Homo sapiens, UniProt P09237); assay: MMP inhibition assay (Ki); type: biochemical
T4 construct: purchased R&D Systems (Minneapolis, MN)
T4 sequence (P09237 95-267): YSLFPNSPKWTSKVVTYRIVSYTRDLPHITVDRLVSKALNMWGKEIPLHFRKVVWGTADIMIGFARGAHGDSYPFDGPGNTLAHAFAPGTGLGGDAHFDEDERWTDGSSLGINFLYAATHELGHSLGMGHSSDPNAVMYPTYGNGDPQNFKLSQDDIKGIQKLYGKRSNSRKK
Procedure: as §1

hMMP-8 = biological target: T5, hMMP-8 (Homo sapiens, UniProt P22894); assay: MMP inhibition assay (Ki); type: biochemical
T5 construct: made in house
T5 sequence (P22894 101-467): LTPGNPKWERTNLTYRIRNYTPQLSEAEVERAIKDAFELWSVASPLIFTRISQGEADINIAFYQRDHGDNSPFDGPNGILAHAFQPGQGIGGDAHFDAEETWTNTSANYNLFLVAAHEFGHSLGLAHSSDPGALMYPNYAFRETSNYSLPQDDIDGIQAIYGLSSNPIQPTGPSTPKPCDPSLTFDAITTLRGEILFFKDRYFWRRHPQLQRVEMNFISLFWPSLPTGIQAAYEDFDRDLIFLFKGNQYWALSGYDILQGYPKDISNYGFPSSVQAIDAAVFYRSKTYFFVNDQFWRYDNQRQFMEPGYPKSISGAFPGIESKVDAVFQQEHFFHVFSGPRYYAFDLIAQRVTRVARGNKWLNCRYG
Procedure: as §1

hMMP-10 = biological target: T6, hMMP-10 (Homo sapiens, UniProt P09238); assay: MMP inhibition assay (Ki); type: biochemical
T6 construct: purchased R&D Systems (Minneapolis, MN)
T6 sequence (P09238 99-476): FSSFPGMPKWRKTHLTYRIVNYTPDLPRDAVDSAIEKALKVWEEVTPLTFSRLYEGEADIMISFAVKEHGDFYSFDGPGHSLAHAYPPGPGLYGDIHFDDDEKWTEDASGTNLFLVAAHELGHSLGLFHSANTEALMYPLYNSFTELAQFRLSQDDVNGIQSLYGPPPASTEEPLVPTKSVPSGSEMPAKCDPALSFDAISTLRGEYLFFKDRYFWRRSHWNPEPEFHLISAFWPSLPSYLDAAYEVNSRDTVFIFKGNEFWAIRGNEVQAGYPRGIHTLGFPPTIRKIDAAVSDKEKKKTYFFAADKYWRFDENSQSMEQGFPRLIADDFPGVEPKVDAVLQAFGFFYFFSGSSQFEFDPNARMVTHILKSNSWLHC
Procedure: as §1

hMMP-1 = biological target: T7, hMMP-1 (Homo sapiens, UniProt P03956); assay: MMP inhibition assay (Ki); type: biochemical
T7 construct: purchased R&D Systems (Minneapolis, MN)
T7 sequence (P03956 100-469): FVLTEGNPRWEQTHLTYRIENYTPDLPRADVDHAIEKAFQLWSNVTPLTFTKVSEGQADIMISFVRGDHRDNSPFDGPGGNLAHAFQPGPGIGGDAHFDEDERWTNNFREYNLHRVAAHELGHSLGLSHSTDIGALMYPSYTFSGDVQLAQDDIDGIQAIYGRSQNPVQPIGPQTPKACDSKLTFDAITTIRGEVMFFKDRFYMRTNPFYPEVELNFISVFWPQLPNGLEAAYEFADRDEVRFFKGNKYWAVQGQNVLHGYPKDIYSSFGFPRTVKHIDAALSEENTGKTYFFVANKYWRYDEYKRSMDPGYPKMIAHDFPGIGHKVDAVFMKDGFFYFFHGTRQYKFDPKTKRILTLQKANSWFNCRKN
Procedure: as §1

hMMP-13 = biological target: T8, hMMP-13 (Homo sapiens, UniProt P45452); assay: MMP inhibition assay (Ki); type: biochemical
T8 construct: made in house
Procedure: as §1

[1] = Stability in mouse blood by HPLC; type: in vitro ADME; details: 4 hours at 37 °C
Procedure: Probes 1, 2, 3 and control probe 4 were synthesized from phosphinic building blocks whose synthesis was previously reported. Briefly, the elongation of the peptide’s sequence as well as the incorporation of the phosphinic building blocks were performed on solid support using a standard Fmoc strategy. After cleavage from the support, pseudo peptide intermediates were purified and subsequently engaged in a coupling reaction with the appropriate dye-NHS ester. The identity and purity of each optical probe were confirmed by analytical HPLC, mass spectrometry analysis and NMR (for detailed protocols and analytical data see supplemental information). The stability of each probe was confirmed in phosphate buffered saline (PBS). Moreover, the stability of probe 3 and its control, probe 4 were evaluated by HPLC in mouse blood over a period of 4 hours at 37 °C.

[2] = Blood levels in apoE-/- mice; type: in vivo; details: mouse, whole blood, intravenous, 1 nmol, read-out: Blood level
Procedure: Fluorescent probes (one nmol in 100 μL saline) were administered through a jugular vein catheter under inhaled isoflurane anesthesia. Blood samples were collected at various time points after probe administration to monitor blood clearance. Animals were sacrificed at the indicated time points and various organs were harvested. Near-infrared fluorescence reflectance imaging was conducted using an IVIS Spectrum system (Caliper Life Science, Hopkinton, MA) with appropriate excitation (Ex) and emission (Em) filter sets (Ex/Em = 675/720 nm for probe 1 and Ex/Em = 745/800 nm for probes 3 and 4). Fluorescence from 10 μL of blood was converted to % injected dose per gram (% ID/g) using a standard curve derived from serial dilutions of each probe in 10 μL of mouse blood. Tissue fluorescence was quantified as mean efficiency per pixel and was presented as an arbitrary unit (AU) relative to the signal from each probe in 10 μL of mouse blood.

ADAMTS-5 = biological target: T9, ADAMTS-5 (Homo sapiens, UniProt Q9UNA0); assay: Metalloprotease inhibition assay (Ki); type: biochemical
T9 sequence (Q9UNA0 262-930): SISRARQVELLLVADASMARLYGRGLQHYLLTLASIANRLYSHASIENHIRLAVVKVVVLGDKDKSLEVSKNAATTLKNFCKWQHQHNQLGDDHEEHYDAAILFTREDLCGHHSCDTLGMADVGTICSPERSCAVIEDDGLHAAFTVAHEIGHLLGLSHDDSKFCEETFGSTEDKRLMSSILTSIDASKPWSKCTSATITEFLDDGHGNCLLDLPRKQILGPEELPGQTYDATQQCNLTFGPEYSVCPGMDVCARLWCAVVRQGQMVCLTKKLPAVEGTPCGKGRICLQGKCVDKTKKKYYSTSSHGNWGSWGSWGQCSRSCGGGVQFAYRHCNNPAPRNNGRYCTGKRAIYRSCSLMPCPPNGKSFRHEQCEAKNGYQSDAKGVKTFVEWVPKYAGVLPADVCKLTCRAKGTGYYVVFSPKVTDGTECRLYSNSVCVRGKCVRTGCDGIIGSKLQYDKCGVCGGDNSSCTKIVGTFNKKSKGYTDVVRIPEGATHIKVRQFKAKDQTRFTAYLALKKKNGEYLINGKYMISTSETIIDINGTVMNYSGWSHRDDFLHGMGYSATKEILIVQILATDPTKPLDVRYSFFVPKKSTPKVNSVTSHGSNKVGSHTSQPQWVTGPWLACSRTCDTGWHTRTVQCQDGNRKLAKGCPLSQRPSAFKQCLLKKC

T1 sequence (P14780 94-707): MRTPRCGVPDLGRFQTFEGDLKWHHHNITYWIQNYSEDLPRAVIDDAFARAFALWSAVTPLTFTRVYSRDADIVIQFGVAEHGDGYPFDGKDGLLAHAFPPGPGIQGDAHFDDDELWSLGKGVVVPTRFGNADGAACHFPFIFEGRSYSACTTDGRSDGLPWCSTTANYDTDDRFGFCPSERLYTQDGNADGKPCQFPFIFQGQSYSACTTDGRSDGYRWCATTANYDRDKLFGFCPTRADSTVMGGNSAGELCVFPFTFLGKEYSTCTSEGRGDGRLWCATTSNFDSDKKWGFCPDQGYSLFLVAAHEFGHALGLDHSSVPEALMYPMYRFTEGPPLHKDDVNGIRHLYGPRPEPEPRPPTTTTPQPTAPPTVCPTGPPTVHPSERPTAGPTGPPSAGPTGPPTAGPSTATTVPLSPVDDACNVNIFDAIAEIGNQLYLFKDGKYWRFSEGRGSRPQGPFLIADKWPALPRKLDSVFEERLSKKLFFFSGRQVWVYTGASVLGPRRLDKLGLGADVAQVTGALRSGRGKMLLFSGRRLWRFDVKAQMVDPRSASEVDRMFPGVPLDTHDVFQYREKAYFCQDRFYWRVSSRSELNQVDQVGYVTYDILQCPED

## CC1(C)C(/C=C/C2=C(Oc3ccc(CCC(=O)NCCCOCCOCCOCCCNC(=O)[C@H](CCC(=O)[O-])NC(=O)[C@H](CCC(=O)O)NC(=O)[C@H](Cc4cc(-c5ccc(-c6cccc(Cl)c6)cc5)no4)CP(=O)(O)c4ccc(Br)cc4)cc3)C(=C/C=C3/N(CCC[N+](C)(C)C)c4ccc(S(=O)(=O)[O-])cc4C3(C)C)/CCC2)=[N+](CCC[N+](C)(C)C)c2ccc(S(=O)(=O)[O-])cc21 [probe 3]
hMMP-9
  Ki: 4.79 ± 0.535 µM
hMMP-14
  Ki: 1.02 ± 0.069 µM
hMMP-3
  Ki: 0.367 ± 0.061 µM
hMMP-7
  Ki: 4.99 ± 0.151 µM
hMMP-8
  Ki: 3.31 ± 0.348 µM
hMMP-10
  Ki: 0.136 ± 0.022 µM
hMMP-1
  Ki: > 10 µM
hMMP-13
  Ki: 0.124 ± 0.007 µM
[1]
  stability in mouse blood: fully stable
[2]
  tissue uptake at 30 min: 2.7 ± 0.1 %ID/g
  tissue uptake at 60 min: 2.3 ± 0.3 %ID/g
ADAMTS-5
  Ki: > 10 µM

## CC1(C)C(=CC=C2CCCC(C=CC3=[N+](CCC[N+](C)(C)C)c4ccc(S(=O)(=O)[O-])cc4C3(C)C)=C2Oc2ccc(CCC(=O)NCCCOCCOCCOCCCNC(=O)C(CCC(=O)[O-])NC(=O)C(CCC(=O)O)NC(=O)C(Cc3cc(-c4cccc(Oc5ccccc5)c4)no3)CP(=O)(O)c3ccc(Br)cc3)cc2)N(CCC[N+](C)(C)C)c2ccc(S(=O)(=O)[O-])cc21 (stereo not drawn) [probe 4]
hMMP-9
  Ki: 4.9 ± 1.3 µM
hMMP-14
  Ki: 7.86 ± 1.53 µM
hMMP-3
  Ki: > 12 µM
hMMP-7
  Ki: 9.8 ± 0.32 µM
hMMP-8
  Ki: 7.5 ± 0.73 µM
hMMP-10
  Ki: 6.43 ± 1.67 µM
hMMP-1
  Ki: > 10 µM
hMMP-13
  Ki: 7.73 ± 1.53 µM
[1]
  stability in mouse blood: stable
[2]
  tissue uptake at 30 min: 2.4 ± 0.3 %ID/g
  tissue uptake at 60 min: 2 ± 0.2 %ID/g
ADAMTS-5
  Ki: > 10 µM
